According to PubChem BioAssay (NCI):
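All cell lines were grown in 96-well plates and treated with compound for 48 hours. GI50 is the concentration that inhibits growth by half. TGI: total growth inhibition.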

How the values were obtained:
Test in all cases: growth of human tumour cells (NCI), 48 h
HCC-2998 colon = system: HCC-2998 colon
NCI-H23 lung = system: NCI-H23 lung
A549 NSCLC = system: A549 NSCLC
SF-539 CNS = system: SF-539 CNS
SW-620 colon = system: SW-620 colon
OVCAR-3 ovarian = system: OVCAR-3 ovarian
BT-549 breast = system: BT-549 breast
K-562 leukemia = system: K-562 leukemia
IGROV1 ovarian = system: IGROV1 ovarian
OVCAR-4 ovarian = system: OVCAR-4 ovarian

Compound	TGI (HCC-2998 colon) [µM]	TGI (NCI-H23 lung) [µM]	TGI (A549 NSCLC) [µM]	TGI (SF-539 CNS) [µM]	TGI (SW-620 colon) [µM]	TGI (OVCAR-3 ovarian) [µM]	TGI (BT-549 breast) [µM]	TGI (K-562 leukemia) [µM]	TGI (IGROV1 ovarian) [µM]	GI50 (OVCAR-4 ovarian) [µM]	TGI (OVCAR-4 ovarian) [µM]	GI50 (NCI-H23 lung) [µM]	GI50 (A549 NSCLC) [µM]	GI50 (SF-539 CNS) [µM]	GI50 (SW-620 colon) [µM]	GI50 (OVCAR-3 ovarian) [µM]	GI50 (BT-549 breast) [µM]	GI50 (K-562 leukemia) [µM]	GI50 (IGROV1 ovarian) [µM]	GI50 (HCC-2998 colon) [µM]
Cc1cc(Oc2cnc(=O)[nH]c2)cs1	> 100	> 100	> 100	> 100	> 100	> 100	> 100	> 100	> 100	–	–	–	–	–	–	–	–	–	–	–
CC1(C)CCC[C@]2(C)c3cc(O)ccc3CC[C@@H]12	–	34.3	36.5	33.1	29	34.3	33.5	29.5	38.8	16.6	33.6	17.3	19	18.3	13.8	17	19.4	10.9	20.4	–
Cc1ccc(C(=O)N2c3ccccc3N(C)n3cccc3C2CC(=O)O)cc1 (stereo unspecified)	> 100	> 100	> 100	> 100	> 100	> 100	–	> 100	> 100	–	> 100	–	–	–	–	–	–	–	–	–
O=c1oc(-c2ccccc2)cc2cccc(O)c12	–	61.5	> 64.6	5.21	> 100	85.8	59.1	> 100	> 100	> 100	> 100	19.6	24.7	0.927	58	25.2	17.5	> 67.3	23	–
O=C(NC12CC3CC(CC(C3)C1)C2)C(=O)c1c[nH]c2ccc([N+](=O)[O-])cc12	> 100	> 100	> 41.1	> 100	> 100	> 100	–	> 100	> 100	–	54.4	–	–	–	–	–	–	–	–	–
N#Cc1ccc(C2C3=C(CCCC3=O)OC3=C2C(=O)c2ccccc2C3=O)cc1 (stereo unspecified)	8.38	5.03	22.3	3.06	5.69	0.711	2.92	–	3.46	0.265	1.07	1.25	7.66	1.69	2.21	0.27	1.56	–	1.45	3
N#Cc1ccc(Nc2cnc3ccc(N)cc3n2)cc1	> 100	> 100	> 100	> 100	> 100	> 100	–	> 100	–	–	> 100	–	–	–	–	–	–	–	–	–
CC(C)N1CCC2(CC1)NNc1ncccc1-n1cccc12	> 100	> 100	> 100	> 100	> 100	> 100	–	> 100	–	–	> 100	–	–	–	–	–	–	–	–	–
C[C@]1(C(=O)O)N[C@H](C(=O)O)CS1	> 1000	> 1000	> 1000	–	> 1000	> 1000	–	> 1000	> 1000	> 1000	> 1000	> 1000	> 1000	–	> 1000	504	–	2.34	> 1000	921
CC(C)(O)[C@@H]1CC[C@@]2(C)CCC[C@H](O)[C@H]2C1	> 100	> 100	> 100	> 100	> 100	> 100	–	> 100	> 100	–	> 100	–	–	–	–	–	–	–	–	–
CN1CCN(C(=O)c2c(NC(=O)NS(=O)(=O)c3ccccc3)sc3c2CCCCC3)CC1	44.2	52.1	> 100	69.9	> 100	> 100	98.6	> 100	> 100	–	–	24.3	65.7	29.7	43.9	39.6	26.3	33.6	> 100	21.9
NC(CC(=O)Nc1ccc(Cl)cc1)=Nc1ccccc1	> 100	> 100	> 100	> 100	> 100	> 100	–	> 100	> 100	–	> 100	–	–	–	–	–	–	–	–	–
COC(=O)[C@@]1(O)CC(C)C=C1C=O (stereo partly specified)	> 100	> 100	60.9	> 100	> 100	> 100	–	> 100	> 100	–	> 100	–	–	–	–	–	–	–	–	–
O=c1cc(-c2ccccc2)nc(/C=C(\O)c2ccncc2)n1-c1ccccc1	> 100	> 100	> 100	> 100	> 100	> 100	–	> 100	> 100	–	> 100	–	–	–	–	–	–	–	–	–
Nc1nc(NC2C=C(CO)C(O)C2O)c([N+](=O)[O-])c(=O)[nH]1 (stereo unspecified)	> 100	> 100	> 100	> 100	> 100	> 100	–	> 100	> 100	–	> 100	–	–	–	–	–	–	–	–	–
COc1cc([C@H]2c3cc4c(cc3[C@H](NCc3ccc([N+](=O)[O-])cc3)C3COC(=O)[C@H]32)OCO4)cc(OC)c1O (stereo partly specified)	3.98	1.91	2.23	2.95	> 38.3	40	–	> 100	> 61.3	–	> 100	–	–	–	–	–	–	–	–	–
CC(C)(c1ccc(Oc2ccc(C#N)c(C#N)c2)cc1)c1ccc(Oc2ccc(C#N)c(C#N)c2)cc1	> 100	> 100	> 100	> 100	> 100	> 100	–	> 100	> 100	> 100	> 100	> 100	> 100	> 100	–	> 100	–	> 100	> 100	> 100
COC1=C2C[C@H](O)C(C)C[C@@]2(OC)OC1=O (stereo partly specified)	> 100	> 100	> 100	> 100	> 100	> 100	–	> 100	> 100	–	> 100	–	–	–	–	–	–	–	–	–
